{
  "source": "paper PMC6689897",
  "about": "“Drugging an undruggable pocket on KRAS” (Proceedings of the National Academy of Sciences of the …, 2019)",
  "target": "GTP-KRASG12D::SOS1 (Homo sapiens, UniProt P01116, G12D)",
  "sequence (P01116 1-169 isoform P01116-2 G12D)": "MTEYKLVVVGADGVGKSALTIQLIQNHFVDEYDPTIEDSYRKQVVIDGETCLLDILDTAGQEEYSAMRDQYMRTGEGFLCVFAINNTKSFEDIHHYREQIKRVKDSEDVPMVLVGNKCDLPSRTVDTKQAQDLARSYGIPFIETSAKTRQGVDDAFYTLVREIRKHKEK",
  "assay": "Alpha Screen PPI assay",
  "type": "biochemical",
  "conditions": "duplicate",
  "method": "page 6: 217 The coordinates and structure factors of the structures have been deposited at the 218 Protein Data Bank with the accession codes PDB Code 6GJ5, 6GJ6, 6GJ7, 6GJ8. 219 220 Alpha Screen Assays 221 Measurements of various protein-protein interactions were performed using the Alpha 222 Screen technology developed by Perkin Elmer. Recombinant RAS proteins (H-, […] RAS variants; all KRAS variants are based on KRAS isoform 4B (uniprot id P01116-2); 224 KRAS (G12D) 1-169, N-terminal 6His-tag, C-terminal avi-tag was from Xtal 225 BioStructures, Inc., KRAS (G12C) 1-169, C-terminal avi-tag, biotinylated, mutations: 226 C51S, C80L, C118S, NRAS(wt) 1-172, C-terminal avi-tag, biotinylated; HRAS(wt) 1- 227 166, C-terminal avi-tag, biotinylated). Biotinylation was performed in vitro with 228 recombinant BirA biotin-protein ligase as recommended by the manufacturer (Avidity 229 LLC, Aurora, Colorado, USA). Interacting proteins such as SOS1 (564-1049, N-terminal 230 GST-tag, TEV cleavage site), cRaf (1-303, N-terminal GST-tag, TEV cleavage site) and 231 PI3KA- RBD (160-317, N-term-HIS_GST-tag) were expressed as glutathione S 232 transferase (GST) fusions. […] Single oxygen induced fluorescence was 246 measured at an Enspire multimode plate reader (Perkin Elmer) according to the 247 manufacturer's recommendations. Data were analyzed using the GraphPad Prism data 248 software. […]",
  "data": [
    {"compound": "C=CC(=O)N1CCN(c2ncnc3c(F)c(-c4c(O)cccc4F)c(Cl)cc23)CC1", "note": "[ARS-1620, reference compound]", "values": [
      {"measurement": "IC50", "value": "> 10000", "unit": "nM"}
    ]},
    {"compound": "Cn1cnc(Cn2ccc3ccc(CNCc4[nH]c5ccccc5c4[C@H]4NC(=O)c5ccc(O)cc54)cc32)c1", "note": "[Compound 1]", "values": [
      {"measurement": "IC50", "value": 490, "unit": "nM"}
    ]}
  ]
}
